Laboratory results: ChEMBL document CHEMBL5604063, “ASAP - DENV-2 NS2B-NS3 protease fluorescence dose response” (2024)
“And” between values parts separate entries of the source, which are not always exact repeats. Identical values can stand only once.

How the values were obtained:
Genome polyprotein [1] = target: T1, Genome polyprotein (dengue virus type 2, UniProt P29990); type: functional, Thailand/16681/1984
Genome polyprotein [2] = target: T1, Genome polyprotein; type: functional, Thailand/16681/1984; remark: listed apart in the source

T1 sequence (P29990 1346-1475 limits assumed): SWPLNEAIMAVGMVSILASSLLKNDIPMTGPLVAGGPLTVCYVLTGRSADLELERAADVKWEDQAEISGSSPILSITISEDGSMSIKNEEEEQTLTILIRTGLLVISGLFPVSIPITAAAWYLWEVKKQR
T1 sequence (P29990 1476-2093 limits assumed): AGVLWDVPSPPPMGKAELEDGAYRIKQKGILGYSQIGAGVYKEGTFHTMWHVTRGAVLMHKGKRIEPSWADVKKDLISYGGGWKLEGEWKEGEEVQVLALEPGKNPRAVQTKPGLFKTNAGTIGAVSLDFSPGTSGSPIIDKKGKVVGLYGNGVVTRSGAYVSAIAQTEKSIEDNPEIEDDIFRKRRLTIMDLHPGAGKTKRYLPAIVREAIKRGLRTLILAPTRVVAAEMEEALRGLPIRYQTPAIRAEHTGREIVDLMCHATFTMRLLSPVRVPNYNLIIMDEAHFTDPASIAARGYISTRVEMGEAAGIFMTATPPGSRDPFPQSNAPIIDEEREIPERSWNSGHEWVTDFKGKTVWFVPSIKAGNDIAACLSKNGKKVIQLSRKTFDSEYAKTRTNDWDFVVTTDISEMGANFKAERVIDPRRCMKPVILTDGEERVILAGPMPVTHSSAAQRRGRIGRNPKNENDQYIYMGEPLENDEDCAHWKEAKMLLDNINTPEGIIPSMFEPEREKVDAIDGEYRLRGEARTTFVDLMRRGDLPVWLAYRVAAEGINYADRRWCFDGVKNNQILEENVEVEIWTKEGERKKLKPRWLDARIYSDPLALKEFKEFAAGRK

| SMILES | IC50 (Genome polyprotein [1]) | IC50 (Genome polyprotein [2]) |
| --- | --- | --- |
| O=C(Nc1ccc2c(c1)CNC2)c1ccc2[nH]ncc2c1 | > 99.5 µM | > 100 µM |
| O=C(Nc1ccc2c(c1)CNC2)c1cccc2[nH]c(C(F)(F)F)cc12 | 91.7 µM | > 100 µM |
| O=C(Nc1ccc2c(c1)CNC2)c1cc(Cl)cc2[nH]c(-c3ccnn3C3CC3)nc12 | 25.2 µM | > 100 µM |
| CN1Cc2cc(NC(=O)c3cc(Cl)cc4[nH]ncc34)ccc2C1(C)C | > 99.5 µM | > 100 µM |
| O=C(Nc1ccc2nc[nH]c2c1)c1cc(F)cc2[nH]ncc12 | > 99.5 µM | > 100 µM |
| Cn1cc(C(F)(F)F)nc1C(=O)Nc1cc(-c2cccnc2)ccn1 | > 99.5 µM | > 100 µM |
| CC(C)CCN1Cc2ccc(NC(=O)c3cc(Cl)cc4[nH]ncc34)cc2C1 | > 99.5 µM | > 100 µM |
| C=CC[C@H]1NCc2cc(NC(=O)c3cccc4c3CC(=O)N4)ccc21 | > 99.5 µM | > 100 µM |
| O=C(Nc1ccc2c(c1)CNC2)c1cc(Cl)cc2[nH]c(-c3nc4c(s3)CCC4)nc12 | 16.4 µM | > 100 µM |
| COc1ccc2[nH]cnc2c1S(=O)(=O)Nc1ccc2c(c1)CNC2 | > 99.5 µM | > 100 µM |
| O=C(Nc1ccc2c(c1)CNC2)c1ccc2c(c1)CCC2 | > 99.5 µM | > 100 µM |
| O=C(Nc1ccc2c(c1)C(=O)OC2)c1cc(CC2CCNCC2)ccc1F | > 99.5 µM | > 100 µM |
| Cn1nc(C(=O)Nc2cc(-c3cccnc3)ccn2)cc1C1CC1 | > 99.5 µM | > 100 µM |
| O=C1OCc2ccc(NC(=O)c3cccc4c3CNC4)cc21 | > 99.5 µM | > 100 µM |
| NCc1ccccc1C(=O)Nc1ccc2c(c1)C(=O)OC2 | > 99.5 µM | > 100 µM |
| CCOC(=O)c1csc([C@H]2CCCN2C(=O)Nc2ccc3c(c2)CNC3)n1 | > 99.5 µM | > 100 µM |
| O=C1OCc2ccc(NC(=O)[C@H]3CNC4(CCCC4)C3)cc21 | > 99.5 µM | > 100 µM |
| Cc1c(C(=O)Nc2cc(-c3cccnc3)ccn2)cc(C(C)C)n1C | > 99.5 µM | > 100 µM |
| O=C(Nc1ccc2c(c1)CNC2)c1nc(C(F)(F)F)cs1 | > 99.5 µM | > 100 µM |
| O=C(Nc1ccc2c(c1)CNC2)c1cc(Cl)cc2[nH]c(-c3c[nH]c(=O)c(Br)c3)nc12 | 12.5 µM | 13.7 µM |
| Cn1cc2c(C(=O)Nc3ccc4c(c3)CNC4)cc(F)cc2n1 | > 99.5 µM | > 100 µM |
| O=C(Nc1ccc2c(c1)CNC2)c1cc(Br)cc2[nH]c([C@H]3CCCO3)nc12 | > 99.5 µM | > 100 µM |

| SMILES | IC50 (Genome polyprotein [1]) | IC50 (Genome polyprotein [2]) |
| --- | --- | --- |
| CN1C(=O)Cc2cc(C(=O)Nc3ccc4c(c3)CNC4)ccc21 | > 99.5 µM | > 100 µM |
| C=CC[C@H]1NCc2cc(NC(=O)c3cc(Cl)cc4[nH]ncc34)ccc21 | > 99.5 µM | > 100 µM |
| O=C(Nc1ccc2c(c1)CNC2)c1cccc2c1OCCN2 | > 99.5 µM | > 100 µM |
| C[C@](N)(C(=O)Nc1ccc2c(c1)C(=O)OC2)c1cccs1 | > 99.5 µM | > 100 µM |
| CC1(C)C(=O)N[C@H]2CCCN(C(=O)Nc3ccc4c(c3)CNC4)[C@H]21 | > 99.5 µM | > 100 µM |
| O=C1C[C@H]2[C@H](CCCN2C(=O)Nc2ccc3c(c2)CNC3)N1 | > 99.5 µM | 75.5 µM and 46.1 µM and > 100 µM (2×) |
| O=C(Nc1ccc2c(c1)S(=O)(=O)NC2)c1cc(Cl)cc2[nH]ncc12 | > 99.5 µM | > 100 µM |
| O=C(Nc1ccc2c(c1)CNC2)N1CC[C@H](Oc2ccc(C3CC3)cn2)C1 | > 99.5 µM | > 100 µM |
| CCc1ccc(-c2nc3c(C(=O)Nc4ccc5c(c4)CNC5)cc(Cl)cc3[nH]2)cc1 | 21.5 µM | 42.9 µM |
| O=C(Nc1ccc2c(c1)CNC2)N1CCC[C@H]1c1nc2ncccc2[nH]1 | > 99.5 µM | > 100 µM |
| Cc1c(C(=O)NCc2ccnc(OC3CCOCC3)c2)cc(C2CC2)n1C | > 99.5 µM | > 100 µM |
| O=C1NS(=O)(=O)c2ccc(NC(=O)c3cc(Cl)cc4[nH]ncc34)cc21 | > 99.5 µM | > 100 µM |
| Cc1c(C(=O)NCc2cccc(C3COC3)c2)cc(C2CC2)n1C | > 99.5 µM | > 100 µM |
| CC(C)(C)c1nc2c(C(=O)Nc3ccc4c(c3)CNC4)cc(Br)cc2[nH]1 | 39 µM | > 100 µM |
| O=C(Nc1ccc2c(c1)CNC2)N1CCC[C@@H]1COCc1ccccc1 | > 99.5 µM | > 100 µM |
| CNC(=O)c1cccc(C(=O)Nc2ccc3c(c2)CNC3)c1 | > 99.5 µM | > 100 µM |
| C#C[C@H](Nc1ccc2c(c1)CNC2)c1cccc2[nH]c(=O)[nH]c12 | > 99.5 µM | > 100 µM |
| O=C(Nc1ccc2c(c1)CNC2)c1cc(Cl)cc2cc[nH]c12 | > 99.5 µM | > 100 µM |
| O=C(Nc1ccc2c(c1)C(=O)OC2)c1cccc(CC2CNC2)c1 | > 99.5 µM | > 100 µM |
| O=C(Nc1ccc2c(c1)CNC2)c1cccc2[nH]ccc12 | > 99.5 µM | > 100 µM |
| O=C(Nc1cc([C@H]2CCOC2)ccn1)c1ccc2ncsc2c1 | > 99.5 µM | > 100 µM |
| O=C1Cc2c(cc(F)cc2C(=O)Nc2ccc3c(c2)CNC3)N1 | 32.8 µM | 30 µM and 25.6 µM and 21 µM |

| SMILES | IC50 (Genome polyprotein [1]) | IC50 (Genome polyprotein [2]) |
| --- | --- | --- |
| O=C1OCc2ccc(NC(=O)[C@H]3CCNC3)cc21 | > 99.5 µM | > 100 µM |
| CC(C)NC(=O)[C@H](Nc1ccc2c(c1)CNC2)c1cc(F)cc2[nH]ncc12 | > 99.5 µM | > 100 µM |
| O=C(Nc1ccc2[nH]c(=O)[nH]c2c1)c1cc(F)cc2[nH]ncc12 | > 99.5 µM | > 100 µM |
| O=C(Nc1ccc2c(c1)CNC2)c1cc(Cl)ccc1-n1cnnn1 | > 99.5 µM | > 100 µM |
| O=C1OCc2ccc(NC(=O)[C@H]3CNCc4[nH]ncc43)cc21 | > 99.5 µM | > 100 µM |
| O=C(Nc1cc(-c2cccnc2)ccn1)c1cc(C2CC2)no1 | > 99.5 µM | > 100 µM |
| Cn1c(=O)[nH]c2c(C(=O)Nc3ccc4c(c3)CNC4)cc(Br)cc21 | > 99.5 µM | 42.8 µM and 34.9 µM |
| O=C(Nc1ccc2c(c1)CNC2)c1cc(Cl)cc2[nH]c(-c3cc(C4CC4)[nH]n3)nc12 | 7.32 µM and 5.15 µM | > 100 µM |
| N#C[C@H](Nc1ccc2c(c1)CNC2)c1cccc2ncccc12 | > 99.5 µM | > 100 µM |
| O=C(Nc1ccc2c(c1)CNC2)c1cc(F)cc2c1CCC2 | > 99.5 µM | > 100 µM |
| O=C(Nc1ccc2c(c1)CNC2)c1cc(Cl)cc2[nH]c(CCc3cccnc3)nc12 | 44.7 µM | > 100 µM |
| NC[C@H]1CC[C@@H](NC(=O)c2cc(Cl)cc3[nH]ncc23)CC1 | > 99.5 µM | > 100 µM |
| O=C(Nc1cc(-c2cccnc2)ccn1)c1cnc(C2CC2)s1 | > 99.5 µM | > 100 µM |
| CC1(C)C[C@H](C(=O)Nc2ccc3c(c2)C(=O)OC3)CCN1 | > 99.5 µM | > 100 µM |
| Cc1nnc(SC[C@H]2CCCN2C(=O)Nc2ccc3c(c2)CNC3)s1 | > 99.5 µM | > 100 µM |
| O=C(Nc1ccc2c(c1)CNC2)c1cccc2nc(O)ccc12 | > 99.5 µM | 47.3 µM and 4.98 µM |
| O=C1Cc2cc(C(=O)Nc3ccc4c(c3)CNC4)c(Cl)cc2N1 | > 99.5 µM | 35.9 µM and 22.7 µM |
| Cc1nc2ccc(C(=O)Nc3ccc4c(c3)CNC4)cc2s1 | > 99.5 µM | > 100 µM |
| COCc1cc(Cl)cc(C(=O)Nc2ccc3c(c2)CNC3)c1 | > 99.5 µM | > 100 µM |
| O=C(Nc1ccc2c(c1)CNC2)c1nc(-c2ccccc2)cs1 | > 99.5 µM | > 100 µM |
| O=C(Nc1ccc2c(c1)CNC2)c1cc(Cl)cc(N2CCCC2=O)c1 | > 99.5 µM | > 100 µM |
| COc1cc(Cl)cc(C(=O)Nc2ccc3c(c2)CNC3)c1 | > 99.5 µM | > 100 µM |

| SMILES | IC50 (Genome polyprotein [1]) | IC50 (Genome polyprotein [2]) |
| --- | --- | --- |
| O=C1Cc2cc(C(=O)Nc3ccc4c(c3)CNC4)ccc2N1 | 9.95 µM and 7.04 µM and 6.09 µM | > 100 µM |
| CC(=O)N1Cc2ccc(NC(=O)c3cc(Cl)cc4[nH]ncc34)cc2C1 | > 99.5 µM | > 100 µM |
| COc1ncc(Cl)cc1C(=O)Nc1ccc2c(c1)CNC2 | > 99.5 µM | > 100 µM |
| NCCC1(C(=O)Nc2ccc3c(c2)C(=O)OC3)CCCC1 | > 99.5 µM | > 100 µM |
| Cn1nc(C(=O)Nc2cc([C@H]3CCOC3)ccn2)cc1C1CC1 | > 99.5 µM | > 100 µM |
| O=C1CCCc2cc(C(=O)Nc3ccc4c(c3)CNC4)ccc2N1 | > 99.5 µM | > 100 µM |
| O=C(Nc1ccc2c(c1)CNC2)c1cc(Cl)cc2nn(-c3ccccc3)nc12 | 7.45 µM and 8.05 µM and 6.62 µM | 12.9 µM |
| CCC[C@H](C)N1Cc2ccc(NC(=O)c3cc(Cl)cc4[nH]ncc34)cc2C1 | > 99.5 µM | > 100 µM |
| O=C(Nc1cc(-c2cccnc2)ccn1)c1coc(C2CC2)n1 | > 99.5 µM | > 100 µM |
| N#Cc1cccc(-c2nc3c(C(=O)Nc4ccc5c(c4)CNC5)cc(Cl)cc3[nH]2)c1 | 1.76 µM and 2.66 µM | 17.3 µM and 12.2 µM |
| O=C(Nc1ccc2c(c1)CNC2)c1cccc2cn[nH]c12 | > 99.5 µM and 55.6 µM | > 100 µM |
| CO[C@]1(C(=O)Nc2ccc3c(c2)C(=O)OC3)CCCNC1 | > 99.5 µM | > 100 µM |
| O=C(Nc1cc2c(cc1Br)CNC2)c1cc(F)cc2[nH]ncc12 | 67 µM | 58 µM |
| C#Cc1cc(Cl)cc(C(=O)Nc2ccc3c(c2)CNC3)c1 | > 99.5 µM | > 100 µM |
| O=C1Cc2c(cc(Br)cc2C(=O)Nc2ccc3c(c2)C(=O)OC3)N1 | > 99.5 µM | > 100 µM |
| O=C(Nc1ccc2c(c1)CNC2)c1cc(Cl)cc2ccccc12 | > 99.5 µM | > 100 µM |
| O=C1CN(C(=O)Nc2ccc3c(c2)CNC3)[C@H]2CCCC[C@H]2N1 | > 99.5 µM | > 100 µM |
| O=C(Nc1ccc2c(c1)CNC2)N1CCC[C@H]1Cc1cc2ccccc2o1 | > 99.5 µM | > 100 µM |
| Cn1nc(C(F)(F)F)cc1C(=O)Nc1cc(-c2cccnc2)ccn1 | > 99.5 µM | > 100 µM |
| O=C(Nc1ccc2c(c1)CNC2)c1cc(Cl)cc2[nH]c(-c3cnc(C4CC4)o3)nc12 | 58.7 µM | 19.4 µM |
| O=C(Nc1ccc2c(c1)CNC2)c1cc(Cl)cc(N2CCCC2)c1 | > 99.5 µM | > 100 µM |
| CC(=O)Nc1cccc(C(=O)Nc2ccc3c(c2)CNC3)c1 | > 99.5 µM | > 100 µM |
